In paper PMC7519584 (Clinical cancer research : an official journal of the …, 2015):

Tests used:
HCC = details: sorafenib monotherapy, phase III trial in HCC (SHARP); cited from earlier work
[1] = ref NCT00610194; cited from earlier work
[2] = human, in vivo
[3] = Plasma pharmacokinetics of refametinib, metabolite M17 and sorafenib; details: human, in vivo, Geometric mean maximum drug concentration (Cmax), multiple dose, day 1 of course 2, at the MTD, non-HCC patients
clinical = details: human, in vivo

What does the source list for `CNC(=O)c1cc(Oc2ccc(NC(=O)Nc3ccc(Cl)c(C(F)(F)F)c3)cc2)ccn1` [sorafenib]?
Patients who achieved stable disease (HCC): 71%; Response rate (HCC): 2%; Sorafenib dose at the MTD of the combination (in combination with refametinib 50 mg twice daily, 28-day courses): 400 mg twice daily

What does the source list for `COc1cc(F)c(F)c(Nc2ccc(I)cc2F)c1NS(=O)(=O)C1(C[C@H](O)CO)CC1` [refametinib]?
MTD of refametinib monotherapy [1]: 50 mg twice daily; Multiple-dose AUC0–12 higher than single-dose AUC0–12 by an average of [2]: approximately 40%; Accumulation after multiple dosing ([2]; 28 days): less than 2 fold; Cmax [3]: 674 ng/mL; Patients with serious AEs considered possibly related to refametinib (human, in vivo): 10 patients; Maximum tolerated dose (MTD) of refametinib (in combination with sorafenib 400 mg twice daily, 28-day courses): 50 mg twice daily; half-life (clinical; Plasma half-life (geometric mean)): ~960 min; Tmax (clinical; po): ~3 h
